Reference: PMC6271079, “Amino Acid Derivatives of Ligustrazine-Oleanolic Acid as New Cytotoxic Agents” (Molecules, 2014)

Experiments:
[1] = system: HepG2; test: MTT cytotoxicity assay, HepG2; format: cell-based; settings: human hepatoma cells
Description: (§1) The cytotoxicity of these compounds was tested on five cells lines by the standard MTT assay. The human cancer cells lines (HepG2, HT-29, Hela, BGC-823) and MDCK cells were provided by the Chinese Academy of Medical Sciences Peking Union Medical College. The tumor cells were cultured in RPMI 1640 medium supplemented with 10% (v/v) fetal bovine serum and 1% (v/v) penicillin-streptomycin (Thermo Technologies, New York, NY, USA) at 37 °C in a humidified atmosphere with 5% CO2. The growing tumor cells at a density 3 × 10^3 cells/mL were exposed to various concentrations of the tested drugs and incubated in a 96-well microtiter plate for 72 h (37 °C, 5% CO2). After MTT solution (20 μL, 5 mg/mL) was added to each well, the plate was incubated for a further 4 h. Then the media was removed. Formazan crystals were dissolved with DMSO (150 μL). After mixing well, the absorbance was quantified at 490 nm with a BIORAD 550 spectrophotometer (Bio-rad Life Science Development Ltd., Beijing, China). Wells containing no drugs were used to be blanks. The IC50 values were defined as the concentration of compounds that produced a 50% reduction of surviving cells and calculated using the Logit-method. Tumor cell growth inhibitory rate was calculated in the following Equation (1): % inhibition = (1 − Sample group OD/Control group OD) × 100%(1)

[2] = system: HT-29; test: MTT cytotoxicity assay, HT-29; format: cell-based; settings: human colorectal cancer cells
Description: as §1

[3] = system: Hela; test: MTT cytotoxicity assay, Hela; format: cell-based, human; settings: 72 h, cervical cancer cells
Description: as §1

[4] = system: BGC-823; test: MTT cytotoxicity assay, BGC-823; format: cell-based; settings: human gastric cancer cells
Description: as §1

[5] = system: MDCK cells; test: MTT toxicity (nephrotoxicity) evaluation, MDCK; format: cell-based; settings: 72 h, Madin-Darby canine kidney cells
Description: as §1

[6] = system: MDCK cells; test: Giemsa staining, MDCK morphology; format: cell-based, canine; settings: 2 μM, 72 h, 200×
Description: (§2) HepG2 cells in logarithmic growth phase were cultured in 6-well plates for 24 h at 37 °C in a humidified atmosphere with 5% CO2. And then each group was treated with different concentrations of compound 6a for 72 h. The cell culture medium was discarded. And the cells were washed twice with PBS, kept in PBS/ethanol (1:1) for 2 min, fixated in ethanol for 10 min. After removing the ethanol, the cells were stained with Giemsa stain for 2 min and observed under inverted phase-contrast microscope at a magnification of 400×. MDCK cells in logarithmic growth phase were cultured in 6-well plates for 24 h at 37 °C in a humidified atmosphere with 5% CO2. The cells were treated with 2 μM of compound 6a and CDDP for 72 h. The same operation was experimented as described above, and the cells were observed under inverted phase-contrast microscope at a magnification of 200×.

[7] = logP by shake flask-ultraviolet spectrophotometry; format: physicochemical; settings: n-caprylic alcohol-water (octanol/water); pH 6.8, n-caprylic alcohol-water, shake flask-UV; read-out: logP (octanol-water partition coefficient)
Text: Lipophilicity (ClogP) is used in rational drug design as a key factor related to the cell transmembrane transport or other biological processes. ClogP values can either be calculated experimentally or predicted by means of commercially available programs. In this work, ClogP values of the TOA-amino acid derivatives were predicted using Sybyl-X 2.0 (Tripos, Certara Inc., St. Louis, MO, USA). […] To determine the octanol-water partition coefficient (logP), a shake flask-ultraviolet spectrophotometry method was used to determine the concentration of 6a and TOA in the water phase and organic phase at pH 6.8 with n-caprylic alcohol-water as the simulation system. […] However, the better activity connected with the increases of these amino acid conjugates’ solubility is worthy of further study.

[8] = system: HepG2 cells; test: Giemsa staining, HepG2 morphology; format: cell-based, human; settings: 1, 2 and 4 μM, 72 h, 400×
Description: as §2

[9] = system: HepG2 cells; test: DAPI staining, HepG2 nuclear changes; format: cell-based, human; settings: 1, 2 and 4 μM, 72 h, 400×
Description: HepG2 cells in logarithmic growth phase were allowed to grow in 6-well plates for 24 h at 37 °C in a humidified atmosphere with 5% CO2. And each group was treated with different concentrations of compound 6a for 72 h. Cell culture medium was discarded and the cells were washed twice with PBS. The cells were fixed with 4% paraformaldehyde (pH 7.4) for 15 min and then washed twice with PBS. With an excitation wavelength of 470 nm, 4',6-diamidino-2-phenylindole (DAPI, 600 nM, Molecular Probes/Invitrogen Life Technologies, Carlsbad, CA, USA) staining was then performed for 2 min and nuclear fragments were observed using inverted phase-contrast microscope at a magnification of 400×.

[10] = system: HepG2, HT-29, Hela and BGC-823; test: MTT cytotoxicity, summary statements over the cell lines; format: cell-based, human; settings: Homo sapiens, HepG2, HT-29, Hela and BGC-823, MTT; read-out: IC50, cytotoxicity on all four cancer cell lines
Description: as §1

[11] = MTT cytotoxicity, summary statements over the cell lines; format: cell-based, human; settings: human (HepG2, HT-29, Hela, BGC-823); dog (MDCK), HepG2, HT-29, Hela, BGC-823 and MDCK cells, four cancer cell lines and MDCK, MTT; read-out: IC50, cytotoxicity on both cancer and MDCK cells
Description: as §1

Compound	logP [7]	melting point [°C]	IC50 ([1]; 72 h) [µM]	IC50 ([2]; 72 h) [µM]	IC50 [3] [µM]	IC50 ([4]; 72 h) [µM]	IC50 [5] [µM]	Morphological changes of MDCK cells (Giemsa staining) [6]	IC50 ([1]; HepG2, 72 h) [µM]	IC50 ([2]; HT-29, 72 h) [µM]	IC50 ([3]; Homo sapiens) [µM]	IC50 ([4]; BGC-823, 72 h) [µM]	IC50 ([5]; Canis lupus familiaris, MDCK) [µM]	Morphological changes of HepG2 cells (Giemsa staining) [8]	Nuclear changes of HepG2 cells (DAPI staining) [9]	IC50 [10] [µM]	IC50 at 72 h [11] [µM]
[NH2][Pt]([NH2])([Cl])[Cl] [CDDP, cisplatin, reference compound]	–	–	2.86	6.11	9.84	6.82	3.69	less density, larger volume, lighter nuclear staining and cellular atypia	–	–	–	–	–	–	–	–	–
Cc1nc(C)c(COC(=O)[C@]23CCC(C)(C)CC2C2=CCC4[C@@]5(C)CC[C@H](OC(=O)CN)C(C)(C)C5CC[C@@]4(C)[C@]2(C)CC3)nc1C (stereo partly drawn) [Compound 6a, 3β-Glycine ester olean-12-en-28-oic acid-3,5,6-trimethylpyrazin-2-methyl ester]	4.3	–	–	–	–	–	–	no significant morphological changes	2	2.5	3.26	3.06	4.88	loss of intercellular contacts, lysis of nuclei, increased cell debris and membrane damage	condensed chromatin, nuclear fragmentation and weak fluorescence	–	–
Cc1nc(C)c(COC(=O)[C@]23CCC(C)(C)CC2C2=CCC4[C@@]5(C)CC[C@H](OC(=O)[C@H](C)N)C(C)(C)C5CC[C@@]4(C)[C@]2(C)CC3)nc1C (stereo partly drawn) [Compound 6b, 3β-L-Alanine ester olean-12-en-28-oic acid-3,5,6-trimethylpyrazin-2-methyl ester]	–	89.7 to 92.1	–	–	–	–	–	–	2.32	4.77	7.69	4.47	5.12	–	–	< 8	–
Cc1nc(C)c(COC(=O)[C@]23CCC(C)(C)CC2C2=CCC4[C@@]5(C)CC[C@H](OC(=O)[C@@H]6CCCN6)C(C)(C)C5CC[C@@]4(C)[C@]2(C)CC3)nc1C (stereo partly drawn) [Compound 6c, 3β-L-Proline ester olean-12-en-28-oic acid-3,5,6-trimethylpyrazin-2-methyl ester]	–	89.6 to 91.3	–	–	–	–	–	–	2.39	3.21	6.75	4.98	5.03	–	–	< 8	–
Cc1nc(C)c(COC(=O)[C@]23CCC(C)(C)CC2C2=CCC4[C@@]5(C)CC[C@H](OC(=O)[C@@H](N)CC(C)C)C(C)(C)C5CC[C@@]4(C)[C@]2(C)CC3)nc1C (stereo partly drawn) [Compound 6d, 3β-L-Leucine ester olean-12-en-28-oic acid-3,5,6-trimethylpyrazin-2-methyl ester]	–	89.6 to 91.6	–	–	–	–	–	–	> 25	> 25	> 25	> 25	> 25	–	–	–	–
CC[C@H](C)[C@H](N)C(=O)O[C@H]1CC[C@@]2(C)C(CC[C@]3(C)C2CC=C2C4CC(C)(C)CC[C@]4(C(=O)OCc4nc(C)c(C)nc4C)CC[C@]23C)C1(C)C (stereo partly drawn) [Compound 6e, 3β-L-Isoleucine ester olean-12-en-28-oic acid-3,5,6-trimethylpyrazin-2-methyl ester]	–	89.8 to 90.7	–	–	–	–	–	–	5.97	9.83	> 25	> 25	> 25	–	–	–	–
Cc1nc(C)c(COC(=O)[C@]23CCC(C)(C)CC2C2=CCC4[C@@]5(C)CC[C@H](OC(=O)[C@@H](N)C(C)C)C(C)(C)C5CC[C@@]4(C)[C@]2(C)CC3)nc1C (stereo partly drawn) [Compound 6f, 3β-L-Valine ester olean-12-en-28-oic acid-3,5,6-trimethylpyrazin-2-methyl ester]	–	89.5 to 91	–	–	–	–	–	–	4.26	5.96	> 25	9.52	9.79	–	–	–	–

Second part, led by results:

logP [7]	melting point [°C]	Compound	IC50 ([1]; 72 h) [µM]	IC50 ([2]; 72 h) [µM]	IC50 [3] [µM]	IC50 ([4]; 72 h) [µM]	IC50 [5] [µM]	Morphological changes of MDCK cells (Giemsa staining) [6]	IC50 ([1]; HepG2, 72 h) [µM]	IC50 ([2]; HT-29, 72 h) [µM]	IC50 ([3]; Homo sapiens) [µM]	IC50 ([4]; BGC-823, 72 h) [µM]	IC50 ([5]; Canis lupus familiaris, MDCK) [µM]	Morphological changes of HepG2 cells (Giemsa staining) [8]	Nuclear changes of HepG2 cells (DAPI staining) [9]	IC50 [10] [µM]	IC50 at 72 h [11] [µM]
–	87.5 to 88.2	Cc1nc(C)c(COC(=O)[C@]23CCC(C)(C)CC2C2=CCC4[C@@]5(C)CC[C@H](OC(=O)[C@@H](N)CCCCN)C(C)(C)C5CC[C@@]4(C)[C@]2(C)CC3)nc1C (stereo partly drawn) [Compound 6g, 3β-L-Lysine ester olean-12-en-28-oic acid-3,5,6-trimethylpyrazin-2-methyl ester]	–	–	–	–	–	–	2.27	2.35	2.38	2.48	2.31	–	–	–	< 2.5
–	82.4 to 83.8	Cc1nc(C)c(COC(=O)[C@]23CCC(C)(C)CC2C2=CCC4[C@@]5(C)CC[C@H](OC(=O)[C@@H](N)Cc6ccccc6)C(C)(C)C5CC[C@@]4(C)[C@]2(C)CC3)nc1C (stereo partly drawn) [Compound 6h, 3β-L-Phenylalanine ester olean-12-en-28-oic acid-3,5,6-trimethylpyrazin-2-methyl ester]	–	–	–	–	–	–	8.22	9.5	> 25	> 25	8.12	–	–	–	–
–	81.9 to 82.5	CNCC(=O)O[C@H]1CC[C@@]2(C)C(CC[C@]3(C)C2CC=C2C4CC(C)(C)CC[C@]4(C(=O)OCc4nc(C)c(C)nc4C)CC[C@]23C)C1(C)C (stereo partly drawn) [Compound 6i, 3β-L-Sarcosine ester olean-12-en-28-oic acid-3,5,6-trimethylpyrazin-2-methyl ester]	–	–	–	–	–	–	10.2	16.9	12.6	16	15.8	–	–	–	–
–	124.6 to 125.8	Cc1nc(C)c(COC(=O)[C@]23CCC(C)(C)CC2C2=CCC4[C@@]5(C)CC[C@H](OC(=O)[C@@H]6CCC(=O)N6)C(C)(C)C5CC[C@@]4(C)[C@]2(C)CC3)nc1C (stereo partly drawn) [Compound 6j, 3β-L-Pyroglutamate ester olean-12-en-28-oic acid-3,5,6-trimethylpyrazin-2-methyl ester]	–	–	–	–	–	–	–	–	–	–	–	–	–	–	–
–	206.9 to 207.7	Cc1nc(C)c(COC(=O)[C@]23CCC(C)(C)CC2C2=CCC4[C@@]5(C)CC[C@H](OC(=O)[C@@H](N)Cc6c[nH]c7ccccc67)C(C)(C)C5CC[C@@]4(C)[C@]2(C)CC3)nc1C (stereo partly drawn) [Compound 6k, 3β-L-Tryptophan ester olean-12-en-28-oic acid-3,5,6-trimethylpyrazin-2-methyl ester]	–	–	–	–	–	–	11.4	> 25	> 25	10	10.8	–	–	–	–
–	107.1 to 108.5	Cc1nc(C)c(COC(=O)[C@]23CCC(C)(C)CC2C2=CCC4[C@@]5(C)CC[C@H](OC(=O)[C@@H](N)CO)C(C)(C)C5CC[C@@]4(C)[C@]2(C)CC3)nc1C (stereo partly drawn) [Compound 6l, 3β-L-Serine ester olean-12-en-28-oic acid-3,5,6-trimethylpyrazin-2-methyl ester]	–	–	–	–	–	–	4.78	4.83	5.22	4.9	3.12	–	–	< 8	–
